In ChEMBL document CHEMBL5046233, “Nitroxoline and its derivatives are potent inhibitors of metallo-β-lactamases” (Eur J Med Chem, 2022):
Values after ≈ are worked out from the molar mass of the structure shown.

How the values were obtained:
[1] = Inhibition of recombinant NDM-1 (unknown origin) using fluorocillin as substrate at 30 uM incubated for 30 mins by fluorescence based assay; conditions: Bacteria
[2] = Inhibition of recombinant NDM-1 (unknown origin) using fluorocillin as substrate at 10 uM incubated for 30 mins by fluorescence based assay; conditions: Bacteria
[3] = Inhibition of recombinant NDM-1 (unknown origin) using fluorocillin as substrate at 3 uM incubated for 30 mins by fluorescence based assay; conditions: Bacteria
Bacteria [4] = experiment: Inhibition of recombinant VIM-1 (unknown origin) using fluorocillin as substrate at 30 uM incubated for 30 mins by fluorescence based assay
Bacteria [5] = experiment: Inhibition of recombinant VIM-1 (unknown origin) using fluorocillin as substrate at 10 uM incubated for 30 mins by fluorescence based assay
Bacteria [6] = experiment: Inhibition of recombinant VIM-1 (unknown origin) using fluorocillin as substrate at 3 uM incubated for 30 mins by fluorescence based assay
Bacteria [7] = experiment: Inhibition of recombinant IMP-1 (unknown origin) using fluorocillin as substrate at 30 uM incubated for 30 mins by fluorescence based assay
Bacteria [8] = experiment: Inhibition of recombinant IMP-1 (unknown origin) using fluorocillin as substrate at 10 uM incubated for 30 mins by fluorescence based assay
Bacteria [9] = experiment: Inhibition of recombinant IMP-1 (unknown origin) using fluorocillin as substrate at 3 uM incubated for 30 mins by fluorescence based assay
Klebsiella pneumoniae = experiment: Antimicrobial activity against Klebsiella pneumoniae clinical isolate T2301 expressing NDM-1 assessed as inhibition of bacterial growth by CLSI protocol based broth microdilution assay; format: functional
Escherichia coli = experiment: Antimicrobial activity against Escherichia coli clinical isolate T2228 expressing VIM-1 assessed as inhibition of bacterial growth by CLSI protocol based broth microdilution assay; format: functional

Structure (SMILES) | inhibition [1] [%] | inhibition [2] [%] | inhibition [3] [%] | inhibition (Bacteria [4]) [%] | inhibition (Bacteria [5]) [%] | inhibition (Bacteria [6]) [%] | inhibition (Bacteria [7]) [%] | inhibition (Bacteria [8]) [%] | inhibition (Bacteria [9]) [%] | MIC (Klebsiella pneumoniae) [µg/mL] | MIC (Escherichia coli) [µg/mL]
O=C(O)c1ccc2c([N+](=O)[O-])cc([N+](=O)[O-])c(O)c2n1 | 96 | 90 | < 20 | 86 | 57 | 34 | 91 | 47 | < 20 |  | 
O=C(O)C[C@H](NCCN[C@@H](CC(=O)O)C(=O)O)C(=O)O | 86 | 84 | 84 |  |  |  |  |  |  |  | 
Nc1ccc2cccc(O)c2n1 | < 20 | < 20 | < 20 |  |  |  |  |  |  |  | 
N#CCNC(=O)c1ccc2cccc(O)c2n1 | < 20 | < 20 | < 20 |  |  |  |  |  |  |  | 
N#Cc1ccc2ccc([N+](=O)[O-])c(O)c2n1 | < 20 | < 20 | < 20 |  |  |  |  |  |  |  | 
CCN1CCN(C(=O)N[C@@H](C(=O)N[C@@H]2C(=O)N3[C@@H]2SC(C)(C)[C@@H]3C(=O)O)c2ccccc2)C(=O)C1=O [PIPERACILLIN] |  |  |  |  |  |  |  |  |  | 4.1 (≈ 7.91 µM) | 1.02 (≈ 1.98 µM)
CN(CC#N)Cc1ccc2c([N+](=O)[O-])ccc(O)c2n1 | 93 | 47 | < 20 | 92 | 53 | 23 | 78 | 38 | < 20 |  | 
O=C(O)c1cc(O)c2ncccc2c1 | < 20 | < 20 | < 20 |  |  |  |  |  |  |  | 
C[C@@H](O)[C@H]1C(=O)N2C(C(=O)O)=C(S[C@@H]3CN[C@H](C(=O)N(C)C)C3)[C@H](C)[C@H]12 [MEROPENEM] |  |  |  |  |  |  |  |  |  | 0.128 (≈ 0.334 µM) | 0.008 (≈ 0.0209 µM)
O=[N+]([O-])c1ccc(O)c2ccccc12 | < 20 | < 20 | < 20 |  |  |  |  |  |  |  | 
Cc1ccc2cccc(O)c2n1 | < 20 | < 20 | < 20 |  |  |  |  |  |  |  | 
O=[N+]([O-])c1cc(O)c2ncccc2c1 | 95 | < 20 | < 20 |  |  |  |  |  |  |  | 
CCNCc1cc([N+](=O)[O-])c2cccnc2c1O | 88 | 40 | < 20 | 98 | 53 | < 20 | 92 | 53 | < 20 |  | 
O=C(O)COc1cccc2cccnc12 | < 20 | < 20 | < 20 |  |  |  |  |  |  |  | 
O=C(c1cc([N+](=O)[O-])c2cccnc2c1O)N1CCOCC1 | 16 | < 20 | < 20 |  |  |  |  |  |  |  | 
O=C(O)c1ccc2cccc(O)c2n1 | 100 | 97 | 24 | 91 | 54 | 32 | 95 | 72 | 27 |  | 
Oc1ccc2cccc(O)c2n1 | < 20 | < 20 | < 20 |  |  |  |  |  |  |  | 
CN(CC#N)C(=O)c1ccc2c([N+](=O)[O-])ccc(O)c2n1 | < 20 | < 20 | < 20 |  |  |  |  |  |  |  | 
N#CC1(NC(=O)c2ccc3c([N+](=O)[O-])ccc(O)c3n2)CC1 | < 20 | < 20 | < 20 |  |  |  |  |  |  |  | 
O=C(O)c1cc([N+](=O)[O-])c2cccnc2c1O | < 20 | < 20 | < 20 |  |  |  |  |  |  |  | 

Structure (SMILES) | inhibition [1] [%] | inhibition [2] [%] | inhibition [3] [%] | inhibition (Bacteria [4]) [%] | inhibition (Bacteria [5]) [%] | inhibition (Bacteria [6]) [%] | inhibition (Bacteria [7]) [%] | inhibition (Bacteria [8]) [%] | inhibition (Bacteria [9]) [%] | MIC (Klebsiella pneumoniae) [µg/mL] | MIC (Escherichia coli) [µg/mL]
O=S(=O)(O)c1ccc(O)c2ncccc12 | 67 | < 20 | < 20 |  |  |  |  |  |  |  | 
Cc1ccc2c([N+](=O)[O-])ccc(O)c2n1 | 35 | < 20 | < 20 |  |  |  |  |  |  |  | 
O=S(=O)(O)c1ccc(O)c2ccccc12 | < 20 | < 20 | < 20 |  |  |  |  |  |  |  | 
Nc1c(O)cc(S(=O)(=O)O)c2ccccc12 | < 20 | < 20 | < 20 |  |  |  |  |  |  |  | 
N#CC1(NC(=O)c2cc([N+](=O)[O-])c3cccnc3c2O)CC1 | < 20 | < 20 | < 20 |  |  |  |  |  |  |  | 
CN(C)Cc1ccc2c([N+](=O)[O-])ccc(O)c2n1 | < 20 | < 20 | < 20 |  |  |  |  |  |  |  | 
CC(C)(O/N=C(\C(=O)N[C@@H]1C(=O)N2C(C(=O)[O-])=C(C[n+]3ccccc3)CS[C@H]12)c1csc(N)n1)C(=O)O [CEFTAZIDIME] |  |  |  |  |  |  |  |  |  | 4.1 (≈ 7.49 µM) | 0.256 (≈ 0.468 µM)
Cc1cc(C)c2cccnc2c1O | < 20 | < 20 | < 20 |  |  |  |  |  |  |  | 
CC(=O)Nc1ccc([N+](=O)[O-])c2cccnc12 | < 20 | < 20 | < 20 |  |  |  |  |  |  |  | 
N#CCNCc1cc([N+](=O)[O-])c2cccnc2c1O | 98 | 89 | 64 | 99 | 99 | 95 | 96 | 91 | 43 |  | 
Cc1ccc2c([N+](=O)[O-])cc([N+](=O)[O-])c(O)c2n1 | < 20 | < 20 | < 20 |  |  |  |  |  |  |  | 
O=C(O)c1ccc(O)c2ncccc12 | 39 | < 20 | < 20 |  |  |  |  |  |  |  | 
O=[N+]([O-])c1ccc(N2CCCC2)c2ncccc12 | < 20 | < 20 | < 20 |  |  |  |  |  |  |  | 
CN(CC#N)C(=O)c1ccc2cccc(O)c2n1 | < 20 | < 20 | < 20 |  |  |  |  |  |  |  | 
O=C(O)c1ccc2c([N+](=O)[O-])ccc(O)c2n1 | 100 | 95 | 20 | 99 | 99 | 70 | 99 | 96 | 74 |  | 
N#CCN(Cc1ccccc1)C(=O)c1ccc2c([N+](=O)[O-])ccc(O)c2n1 | < 20 | < 20 | < 20 |  |  |  |  |  |  |  | 
O=[N+]([O-])c1cc([N+](=O)[O-])c2cccnc2c1O | < 20 | < 20 | < 20 |  |  |  |  |  |  |  | 
Cc1ccc2c(Cl)cc(Cl)c(O)c2n1 | 91 | 71 | < 20 | 84 | 58 | 20 | 92 | 73 | 22 |  | 
Oc1ccc(F)c2cccnc12 | < 20 | < 20 | < 20 |  |  |  |  |  |  |  | 
Nc1c([N+](=O)[O-])cc([N+](=O)[O-])c2cccnc12 | < 20 | < 20 | < 20 |  |  |  |  |  |  |  | 

Structure (SMILES) | inhibition [1] [%] | inhibition [2] [%] | inhibition [3] [%] | inhibition (Bacteria [4]) [%] | inhibition (Bacteria [5]) [%] | inhibition (Bacteria [6]) [%] | inhibition (Bacteria [7]) [%] | inhibition (Bacteria [8]) [%] | inhibition (Bacteria [9]) [%] | MIC (Klebsiella pneumoniae) [µg/mL] | MIC (Escherichia coli) [µg/mL]
c1cnc2c(c1)ccc1cccnc12 | 68 | < 20 | < 20 |  |  |  |  |  |  |  | 
CN(C)Cc1ccc2c(Cl)cc(Cl)c(O)c2n1 | 69 | < 20 | < 20 |  |  |  |  |  |  |  | 
N#Cc1ccc2c([N+](=O)[O-])cc([N+](=O)[O-])c(O)c2n1 | < 20 | < 20 | < 20 |  |  |  |  |  |  |  | 
NC(=O)c1ccc([N+](=O)[O-])c2cccnc12 | < 20 | < 20 | < 20 |  |  |  |  |  |  |  | 
Nc1ccc2c([N+](=O)[O-])ccc(O)c2n1 | 93 | 46 | < 20 | 72 | 37 | 20 | 74 | 38 | < 20 |  | 
O=C(O)c1ccc([N+](=O)[O-])c2cccnc12 | < 20 | < 20 | < 20 |  |  |  |  |  |  |  | 
Oc1c(Cl)cc(Cl)c2cccnc12 | 99 | 98 | < 20 | 97 | 90 | 23 | 97 | 95 | 34 |  | 
CN(CC#N)Cc1cc([N+](=O)[O-])c2cccnc2c1O | 82 | < 20 | < 20 |  |  |  |  |  |  |  | 
N#CCN(Cc1ccccc1)C(=O)c1ccc2cccc(O)c2n1 | < 20 | < 20 | < 20 |  |  |  |  |  |  |  | 
O=[N+]([O-])c1cc(CNCc2ccccc2)c(O)c2ncccc12 | 76 | 23 | < 20 |  |  |  |  |  |  |  | 
N#CCNC(=O)c1ccc2c([N+](=O)[O-])ccc(O)c2n1 | < 20 | < 20 | < 20 |  |  |  |  |  |  |  | 
N#CCOc1ccc([N+](=O)[O-])c2cccnc12 | < 20 | < 20 | < 20 |  |  |  |  |  |  |  | 
CN(CC#N)C(=O)c1ccc2c([N+](=O)[O-])cc([N+](=O)[O-])c(O)c2n1 | < 20 | < 20 | < 20 |  |  |  |  |  |  |  | 
Oc1ccc(C(F)(F)F)c2cccnc12 | < 20 | < 20 | 13 |  |  |  |  |  |  |  | 
N#Cc1ccc2cccc(O)c2n1 | < 20 | < 20 | < 20 |  |  |  |  |  |  |  | 
O=C(O)CN(CCN(CC(=O)O)CC(=O)O)CC(=O)O | 87 | 87 | 84 |  |  |  |  |  |  |  | 
N#CCN(Cc1ccccc1)C(=O)c1ccc2c([N+](=O)[O-])cc([N+](=O)[O-])c(O)c2n1 | < 20 | < 20 | < 20 |  |  |  |  |  |  |  | 
Oc1ccc(Cl)c2cccnc12 | 60 | < 20 | < 20 |  |  |  |  |  |  |  | 
